Experimental data reported in patent US8338143B2, “Enhanced production of paclitaxel and taxanes by cell cultures of Taxus species” (Phyton Holdings, LLC, priority 1996, dated 2012).
Read-outs that look alike come from different tables or passages of the source.

Columns and labels:
[1] = system: Taxus chinensis cell line KS1A; assay: Enhancement of taxane biosynthesis by silver compounds; assay type: cell-based
Protocol: Analytical high performance liquid chromatography (HPLC) was performed on a high-carbon loaded diphenyl column (Supelco, 5 μM, 4.6 mm×25 cm) with an LDC Analytical binary gradient high pressure mixing system consisting of CM3500/CM3200 pumps, a CM4100 variable volume autosampler and an SM5000 photo diode array detector interfaced to a personal computer. Column temperature was regulated ay 35° C. with an Eldex CH150 column oven. Quantitative HPLC analysis of taxanes was accomplished using a binary gradient elution scheme as follows: […]
Seven-day old cells of Taxus chinensis suspension KS1A cultivated in Medium L (Table 2) were suction filtered aseptically using a sterile Buchner funnel fitted with a MIRACLOTH (Calbiochem) filter. Approximately 0.75 to 1 gram fresh weight cells were inoculated into 4 to 5 mL of culture medium of the given composition indicated in Table 10, to yield a fresh weight cell density in the range of 15% to 20% (w/v). The vessels were incubated at 25±1° C. at 120 RPM on a gyratory shaker (1″ throw) in the dark. Evaporation was corrected for by addition of sterile distilled water. Samples of whole broth (i.e., both extracellular and intracellular taxanes) were taken at periodic intervals, and were processed and analyzed by HPLC according to the methods outlined in Example 5.

[2] = system: Taxus chinensis cell culture SS122-42; assay: Enhancement of taxane biosynthesis by jasmonic acid and its methyl ester; assay type: cell-based; conditions: 200 μM JMA or 89 μM MJS; Medium N + 10 μM NAA, 14 days, whole broth
Protocol: Seven-day old cells of Taxus chinensis suspensions cultivated in Medium M (Table 2) were suction filtered aseptically using a sterile Buchner funnel fitted with a MIRACLOTH (Calbiochem) filter. Cells were inoculated into culture medium of the given composition indicated in Table 12, at a fresh weight cell density in the range of 15% to 20% (w/v). The cultures were incubated at 24±1° C. at 120 or 180 RPM (depending on the vessel size) on a gyratory shaker (1″ throw) in the dark. Evaporation was corrected for by adding sterile distilled water. Samples of whole broth (i.e., both extracellular and intracellular taxanes) were taken at periodic intervals, and were processed and analyzed by HPLC according to the methods outlined in Example 5.

[3] = system: Taxus chinensis cell culture SS122-13; assay: as above; assay type: cell-based; conditions: 89 μM MJS; Medium N + 10 μM NAA, 14 days, whole broth
Protocol: Seven-day old cells of Taxus chinensis suspensions cultivated in Medium M (Table 2) were suction filtered aseptically using a sterile Buchner funnel fitted with a […] (Calbiochem) filter. […] The cultures were incubated at 24±1° C. at 120 or 180 RPM (depending on the vessel size) on a gyratory shaker (1'' throw) in the dark. Evaporation was corrected for by adding sterile distilled water.

[4] = system: Taxus chinensis cell culture SS6A-1224
[5] = system: Taxus chinensis cell culture SS122-42
[6] = system: Taxus chinensis cell culture SS122-13
Taxus spp. cell cultures [7] = system: Taxus spp. cell cultures
Taxus spp. cell cultures [8] = assay: Elicitation of Taxus cell cultures by biotic and abiotic elicitors; conditions: comparison among elicitors tested
Taxus chinensis SS122-42 = assay: Enhancement of taxane biosynthesis by MDNA; assay type: cell-based; conditions: 50 μM MDNA, 14 days, whole broth
Protocol: Seven-day old cells of Taxus chinensis suspension culture SS122-42 cultivated in Medium M (Table 2) were suction filtered aseptically using a sterile Buchner funnel fitted with a […] (Calbiochem) filter. […] The vessels were incubated at 24±1° C. at 180 RPM on a gyratory shaker (1'' throw) in the dark. Treated cultures were sampled and analyzed using the methods described in Example 5 at various time points. Evaporation was corrected for by adding sterile distilled water at periodic intervals.

[9] = culture medium I (Medium N + 10 μM NAA)
[10] = culture medium II (medium I + 50 μM silver thiosulfate)

With Toluenesulfonic acid silver salt the “Baccatin III” value [1] was 39 mg/L extracellular product, the “Taxol (paclitaxel)” value [1] was 6 mg/L extracellular product and the “Total Taxanes” value [1] was 45 mg/L extracellular product.

`CC/C=C\CC1C(=O)CCC1CC(=O)OC` (centres unmarked) [MJS, methyl jasmonate] was tested, and the “Baccatin III” value [2] was 3 mg/L, the “Other Taxanes” value [2] was 109 mg/L and the “Taxol (paclitaxel)” value [2] was 121 mg/L. For the same compound, the “Total Taxanes” value [2] was 233 mg/L, the “Baccatin III” value [3] was 9 mg/L and the “Other Taxanes” value [3] was 63 mg/L. The “Taxol (paclitaxel)” value [3] was 73 mg/L and the “Total Taxanes” value [3] was 124 mg/L.

In the case of `O=S(=O)([O-])[O-].[Ag+].[Ag+]` [Silver sulfate], the “Baccatin III” value [1] is reported as 61 mg/L extracellular product, the “Taxol (paclitaxel)” value [1] is reported as 7 mg/L extracellular product and the “Total Taxanes” value [1] is reported as 68 mg/L extracellular product.

Silver thiosulfate was tested, and the “Baccatin III” value [1] was 71 mg/L extracellular product, the “Taxol (paclitaxel)” value [1] was 15 mg/L extracellular product and the “Total Taxanes” value [1] was 86 mg/L extracellular product. The “Baccatin III” value [4] was 172 mg/L, the “Other Taxanes” value [4] was 126 mg/L and the “Taxol (paclitaxel)” value [4] was 86 mg/L. For the same compound, the “Total Taxanes” value [4] was 384 mg/L, the “Baccatin III” value [5] was 4 mg/L and the “Other Taxanes” value [5] was 38 mg/L. For the same compound, the “Taxol (paclitaxel)” value [5] was 146 mg/L, the “Total Taxanes” value [5] was 188 mg/L and the “Baccatin III” value [6] was 12 mg/L. The “Other Taxanes” value [6] was 60 mg/L, the “Taxol (paclitaxel)” value [6] was 103 mg/L and the “Total Taxanes” value [6] was 173 mg/L.

With Chitosan the “toxicity to cells / effect on cell viability” value (Taxus spp. cell cultures [7]) was “toxic and causes permanent cell damage”.

`COc1cc(/C=C/C(=O)O)ccc1O` [ferulic acid] was tested, and the “production increase by elicitation (taxane accumulation and secretion)” value (Taxus spp. cell cultures [8]) was “highest production increase”.

For Silver oxide, the “Baccatin III” value [1] was 43 mg/L extracellular product, the “Taxol (paclitaxel)” value [1] was 18 mg/L extracellular product and the “Total Taxanes” value [1] was 61 mg/L extracellular product.

With `O=C(O)c1ccccc1` [benzoic acid] the “production increase by elicitation (taxane accumulation and secretion)” value (Taxus spp. cell cultures [8]) was “highest production increase”.

`O=C(O)C=Cc1cc2c(cc1[N+](=O)[O-])OCO2` [MDNA, 3,4-methylenedioxy-6-nitrocinnamic acid] was tested, and the “Baccatin III” value (Taxus chinensis SS122-42; [9]) was 5 mg/L, the “Other Taxanes” value (Taxus chinensis SS122-42; [9]) was 45 mg/L and the “Taxol (paclitaxel)” value (Taxus chinensis SS122-42; [9]) was 163 mg/L. The “Total Taxanes” value (Taxus chinensis SS122-42; [9]) was 213 mg/L, the “Baccatin III” value (Taxus chinensis SS122-42; [10]) was 34 mg/L and the “Other Taxanes” value (Taxus chinensis SS122-42; [10]) was 89 mg/L. The “Taxol (paclitaxel)” value (Taxus chinensis SS122-42; [10]) was 311 mg/L and the “Total Taxanes” value (Taxus chinensis SS122-42; [10]) was 434 mg/L.

In the case of `CC/C=C\C[C@H]1C(=O)CC[C@@H]1CC(=O)O` [JMA, Jasmonic acid], the “Baccatin III” value [2] is reported as 4 mg/L, the “Other Taxanes” value [2] is reported as 87 mg/L and the “Taxol (paclitaxel)” value [2] is reported as 120 mg/L. For the same compound, the “Total Taxanes” value [2] was 211 mg/L.

For `O=C([O-])c1ccccc1.[Ag+]` [Silver benzoate], the “Baccatin III” value [1] was 40 mg/L extracellular product, the “Taxol (paclitaxel)” value [1] was 7 mg/L extracellular product and the “Total Taxanes” value [1] was 47 mg/L extracellular product.
